According to patent US12331054B2, “Perk inhibiting imidazolopyrazine compounds” (HiberCell, Inc., priority 2019, dated 2025):

Assays:
[1] = molecular target: Recombinant human EIF2AK3 (PERK) catalytic domain (amino acids 536-1116) (Homo sapiens (Human), UniProt Q9NZJ5); assay: PERK In Vitro Activity Assay (isolated), TR-FRET kinase assay; conditions: isolated PERK enzyme, 1.5 μM ATP, read-out: Biochemical IC50
Text: PERK In Vitro Activity Assay (isolated):
In vitro Inhibition of PERK Enzyme Activity (isolated) Recombinant human EIF2AK2 (PKR) catalytic domain (amino acids 252-551), EIF2AK3 (PERK) catalytic domain (amino acids 536-1116), GFP-eIF2a substrate, and Terbium-labelled phospho-eIF2a antibody is obtained (Invitrogen, Carlsbad, CA).
Express and purify HIS-SUMO-GCN2 catalytic domain (amino acids 584-1019) from E. coli. Perform TR-FRET kinase assays in the absence or presence of inhibitors in a reaction buffer consisting of 50 mM HEPES, pH 7.5, 10 mM MgCb, 1.0 mM EGTA, and 0.01% Brij-35, and 100-200 nM GFP-eIF2a substrate. […] Add test compound, initiate the reaction by addition of enzyme, and incubate at room temperature for 45 minutes. Stop the reaction by addition of EDTA to a final concentration of 10 mM, add Terbium-labelled phospho-eIF2a antibody at a final concentration of 2 nM, and incubate for 90 minutes. Monitor the resulting fluorescence in an EnVison® Multilabel reader (PerkinElmer, Waltham, MA). Determine TR-FRET ratios and the resulting IC50 values using a 4-parameter nonlinear logistic equation as shown: Y=(A+((B−A)/(1+(C/x)AD)))) where, Y=% specific inhibition, A=Bottom of the curve, B=Top of the curve, C=absolute IC50 (concentration causing 50% inhibition), and D=hill slope.

[2] = test system: eIF2α in HEK293-EGFP-eIF2α cells; assay: PERK Cellular Assay (HEK293-EGFP-eIF2α cells, tunicamycin-induced ER stress, TR-FRET); type: cell-based; conditions: tunicamycin 2 hours
Method: Stable cell lines were created in HEK293 cells using lentiviral particles harboring an expression vector for GFP-eIF2α. Cells were selected using puromycin and enriched using fluorescence activated cell sorting against GFP. HEK293-EGFP-eIF2α cells were plated at 5000 cells/well in 384-well assay plates and incubated overnight at 37° C., 5% CO2. Inhibitor compounds were added to the wells by Echo acoustic dispensing and incubated for 30 minutes at 37° C., 5% CO2 prior to induction of ER stress by addition of tunicamycin to […] for 2 hours. Cells were lysed and TR-FRET was measured in an EnVision plate reader (PerkinElmer). FRET ratio data was normalized to signal from lysates treated with DMSO vehicle control and plotted as percent inhibition against 10-point; 3-fold dilution series of inhibitors. IC50 values were calculated using 4-parameter logistical fitting in XLFit.

Chain of Recombinant human EIF2AK3 (PERK) catalytic domain (amino acids 536-1116) (Q9NZJ5 536-1116): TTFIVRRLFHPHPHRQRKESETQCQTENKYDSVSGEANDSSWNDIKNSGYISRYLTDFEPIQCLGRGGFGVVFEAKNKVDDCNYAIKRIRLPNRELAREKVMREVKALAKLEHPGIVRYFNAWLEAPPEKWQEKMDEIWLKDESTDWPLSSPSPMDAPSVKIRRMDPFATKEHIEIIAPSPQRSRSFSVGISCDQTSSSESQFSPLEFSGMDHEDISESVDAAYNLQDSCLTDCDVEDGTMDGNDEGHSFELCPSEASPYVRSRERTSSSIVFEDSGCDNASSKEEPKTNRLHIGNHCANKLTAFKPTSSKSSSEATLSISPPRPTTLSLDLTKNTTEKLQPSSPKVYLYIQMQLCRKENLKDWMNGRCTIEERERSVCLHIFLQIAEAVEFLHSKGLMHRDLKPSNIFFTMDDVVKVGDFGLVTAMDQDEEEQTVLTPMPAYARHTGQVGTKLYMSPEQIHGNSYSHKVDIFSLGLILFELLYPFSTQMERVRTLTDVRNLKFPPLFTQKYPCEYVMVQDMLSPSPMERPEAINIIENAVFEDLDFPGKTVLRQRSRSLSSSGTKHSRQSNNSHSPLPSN

Row | Compound | IC50 [1] | IC50 [2] | IC50 ([2]; 2 h)
1 | [2H]C([2H])([2H])c1nc(-c2ccc(NC(=O)C(O)c3cc(F)cc(F)c3)cc2C)c2c(N)nc(C)cn12 (centres unmarked) [Example 45, N-[4-[8-amino-6-methyl-3-(trideuteriomethyl)imidazo[1,5-a]pyrazin-1-yl]-3-methyl-phenyl]-2-(3,5-difluoro-phenyl)-2-hydroxy-acetamide] | 51 to 100 nM | 1000 to 2000 nM | 
2 | [2H]C([2H])([2H])c1nc(-c2ccc(NC(=O)C(O)c3cc(F)cc(F)c3)cc2C)c2c(N)ncc(C(F)(F)F)n12 (centres unmarked) [Example 47, N-[4-[8-amino-3-(trideuteriomethyl)-5-(trifluoromethyl)imidazo[1,5-a]pyrazin-1-yl]-3-methyl-phenyl]-2-(3,5-difluoro-phenyl)-2-hydroxy-acetamide] | 26 to 50 nM | 101 to 250 nM | 
3 | [2H]C([2H])([2H])c1nc(-c2ccc(NC(=O)C(O)c3cc(F)cc(C(F)(F)F)c3)cc2C)c2c(N)nc(C)cn12 (centres unmarked) [Example 53, N-[4-[8-amino-6-methyl-3-(trideuteriomethyl)imidazo[1,5-a]pyrazin-1-yl]-3-methyl-phenyl]-2-[3-fluoro-5-(trifluoromethyl)phenyl]-2-hydroxy-acetamide] | 101 to 250 nM | 501 to 1000 nM | 
4 | Cc1cc(NC(=O)C(O)c2cc(F)cc(C(F)(F)F)c2)ccc1-c1nc(C)n2c(C)cnc(N)c12 (centres unmarked) [Example 59, N-(4-(8-amino-3,5-dimethylimidazo [1,5-a]pyrazin-1-yl)-3-methylphenyl)-2-(3-fluoro-5-(trifluoromethyl)phenyl)-2-hydroxyacetamide] | 1 to 25 nM | 101 to 250 nM | 
5 | [2H]C([2H])([2H])c1nc(-c2ccc(NC(=O)C(O)c3cc(F)cc(C(F)(F)F)c3)cc2C)c2c(N)ncc(C(F)(F)F)n12 (centres unmarked) [Example 60, N-[4-[8-amino-3-(trideuteriomethyl)-5-(trifluoromethyl)imidazo[1,5-a]pyrazin-1-yl]-3-methyl-phenyl]-2-[3-fluoro-5-(trifluoromethyl)phenyl]-2-hydroxy-acetamide] | 1 to 25 nM | 26 to 50 nM | 
6 | [2H]C([2H])([2H])c1nc(-c2ccc(NC(=O)C(O)c3cc(F)cc(C(F)(F)F)c3)cc2C)c2c(N)ncc(C(F)(F)F)n12 (centres unmarked) [Example 61, N-[4-[8-amino-3-(trideuteriomethyl)-5-(trifluoromethyl)imidazo[1,5-a]pyrazin-1-yl]-3-methyl-phenyl]-2-[3-fluoro-5-(trifluoromethyl)phenyl]-2-hydroxy-acetamide] | 51 to 100 nM | 251 to 500 nM | 
7 | Cc1cc(F)cc(C(O)C(=O)Nc2ccc(-c3nc(C)n4c(C)cnc(N)c34)c(C)c2)c1 (centres unmarked) [Example 62, N-(4-(8-amino-3,5-dimethylimidazo [1,5-a]pyrazin-1-yl)-3-methyl-phenyl)-2-(3-fluoro-5-methylphenyl)-2-hydroxyacetamide] | 1 to 25 nM | 1 to 25 nM | 
8 | Cc1cc(F)cc(C(O)C(=O)Nc2ccc(-c3nc(C)n4c(C)cnc(N)c34)c(C)c2)c1 (centres unmarked) [Example 63, N-(4-(8-amino-3,5-dimethylimidazo [1,5-a]pyrazin-1-yl)-3-methyl-phenyl)-2-(3-fluoro-5-methylphenyl)-2-hydroxyacetamide] | 1 to 25 nM | 51 to 100 nM | 
9 | Cc1cc(NC(=O)C(O)c2cccc(F)c2)c(F)cc1-c1nc(C)n2c(C)cnc(N)c12 (centres unmarked) [Example 64, N-(4-(8-amino-3,5-dimethylimidazo [1,5-a]pyrazin-1-yl)-2-fluoro-5-methylphenyl)-2-(3-fluorophenyl)-2-hydroxy-acetamide] | 51 to 100 nM | 501 to 1000 nM | 
10 | Cc1cc(NC(=O)C(O)c2cccc(F)c2)c(F)cc1-c1nc(C)n2c(C)cnc(N)c12 (centres unmarked) [Example 65, N-(4-(8-amino-3,5-dimethylimidazo [1,5-a]pyrazin-1-yl)-2-fluoro-5-methylphenyl)-2-(3-fluorophenyl)-2-hydroxy-acetamide] | 1 to 25 nM | 1 to 25 nM | 
11 | CCc1cc(NC(=O)C(O)c2cccc(F)c2)ccc1-c1nc(C)n2c(C)cnc(N)c12 (centres unmarked) [Example 66, N-(4-(8-amino-3,5-dimethylimidazo [1,5-a]pyrazin-1-yl)-3-ethylphenyl)-2-(3-fluorophenyl)-2-hydroxy-acetamide] | 1 to 25 nM | 26 to 50 nM | 
12 | CCc1cc(NC(=O)C(O)c2cccc(F)c2)ccc1-c1nc(C)n2c(C)cnc(N)c12 (centres unmarked) [Example 67, N-(4-(8-amino-3,5-dimethylimidazo [1,5-a]pyrazin-1-yl)-3-ethylphenyl)-2-(3-fluorophenyl)-2-hydroxy-acetamide] | 1 to 25 nM | 101 to 250 nM | 

Second part, led by results:

Row | IC50 [1] | Compound | IC50 [2] | IC50 ([2]; 2 h)
13 | 1 to 25 nM | [2H]C([2H])([2H])c1nc(-c2ccc(NC(=O)C(O)c3cc(F)cc(F)c3)cc2C)c2c(N)ncc(C(F)(F)F)n12 (centres unmarked) [Example 46, N-[4-[8-amino-3-(trideuteriomethyl)-5-(trifluoromethyl)imidazo[1,5-a]pyrazin-1-yl]-3-methyl-phenyl]-2-(3,5-difluoro-phenyl)-2-hydroxy-acetamide] | 26 to 50 nM | 
14 | 1 to 25 nM | [2H]C([2H])([2H])c1nc(-c2ccc(NC(=O)C(O)c3cc(F)cc(F)c3)cc2C)c2c(N)ncc(Cl)n12 (centres unmarked) [Example 48, N-[4-[8-amino-5-chloro-3-(trideuteriomethyl)imidazo[1,5-a]pyrazin-1-yl]-3-methyl-phenyl]-2-(3,5-difluoro-phenyl)-2-hydroxy-acetamide] |  | 1 to 25 nM
15 | 1 to 25 nM | [2H]C([2H])([2H])c1nc(-c2ccc(NC(=O)C(O)c3cc(F)cc(F)c3)cc2C)c2c(N)ncc(C)n12 (centres unmarked) [Example 50, N-[4-[8-amino-5-methyl-3-(trideuteriomethyl)imidazo[1,5-a]pyrazin-1-yl]-3-methyl-phenyl]-2-(3,5-difluoro-phenyl)-2-hydroxy-acetamide] | 1 to 25 nM | 
16 | 1 to 25 nM | [2H]C([2H])([2H])c1nc(-c2ccc(NC(=O)C(O)c3cc(F)cc(F)c3)cc2C)c2c(N)ncc(C)n12 (centres unmarked) [Example 51, N-[4-[8-amino-5-methyl-3-(trideuteriomethyl)imidazo[1,5-a]pyrazin-1-yl]-3-methyl-phenyl]-2-(3,5-difluoro-phenyl)-2-hydroxy-acetamide] | 51 to 100 nM | 
17 | 1 to 25 nM | [2H]C([2H])([2H])c1nc(-c2ccc(NC(=O)C(O)c3cc(F)cc(C(F)(F)F)c3)cc2C)c2c(N)nc(C)cn12 (centres unmarked) [Example 52, N-[4-[8-amino-6-methyl-3-(trideuteriomethyl)imidazo[1,5-a]pyrazin-1-yl]-3-methyl-phenyl]-2-[3-fluoro-5-(trifluoromethyl)phenyl]-2-hydroxy-acetamide] | 26 to 50 nM | 
18 | 1 to 25 nM | [2H]C([2H])([2H])c1nc(-c2ccc(NC(=O)C(O)c3cc(F)cc(C(F)(F)F)c3)cc2C)c2c(N)ncc(C)n12 (centres unmarked) [Example 54, N-[4-[8-amino-5-methyl-3-(trideuteriomethyl)imidazo[1,5-a]pyrazin-1-yl]-3-methyl-phenyl]-2-[3-fluoro-5-(trifluoromethyl)phenyl]-2-hydroxy-acetamide] | 1 to 25 nM | 
19 | 1 to 25 nM | [2H]C([2H])([2H])c1nc(-c2ccc(NC(=O)C(O)c3cc(F)cc(C(F)(F)F)c3)cc2C)c2c(N)ncc(C)n12 (centres unmarked) [Example 55, N-[4-[8-amino-5-methyl-3-(trideuteriomethyl)imidazo[1,5-a]pyrazin-1-yl]-3-methyl-phenyl]-2-[3-fluoro-5-(trifluoromethyl)phenyl]-2-hydroxy-acetamide] | 101 to 250 nM | 
20 | 1 to 25 nM | [2H]C([2H])([2H])c1nc(-c2ccc(NC(=O)C(O)c3cc(F)cc(C(F)(F)F)c3)cc2C)c2c(N)ncc(Cl)n12 (centres unmarked) [Example 56, N-[4-[8-amino-5-chloro-3-(trideuteriomethyl)imidazo[1,5-a]pyrazin-1-yl]-3-methyl-phenyl]-2-[3-fluoro-5-(trifluoromethyl)phenyl]-2-hydroxy-acetamide] | 1 to 25 nM | 
21 | 1 to 25 nM | [2H]C([2H])([2H])c1nc(-c2ccc(NC(=O)C(O)c3cc(F)cc(C(F)(F)F)c3)cc2C)c2c(N)ncc(Cl)n12 (centres unmarked) [Example 57, N-[4-[8-amino-5-chloro-3-(trideuteriomethyl)imidazo[1,5-a]pyrazin-1-yl]-3-methyl-phenyl]-2-[3-fluoro-5-(trifluoromethyl)phenyl]-2-hydroxy-acetamide] | 26 to 50 nM | 
22 | 1 to 25 nM | Cc1cc(NC(=O)C(O)c2cc(F)cc(C(F)(F)F)c2)ccc1-c1nc(C)n2c(C)cnc(N)c12 (centres unmarked) [Example 58, N-(4-(8-amino-3,5-dimethylimidazo [1,5-a]pyrazin-1-yl)-3-methylphenyl)-2-(3-fluoro-5-(trifluoromethyl)phenyl)-2-hydroxyacetamide] | 26 to 50 nM | 
